Tests used:
ChPTPλ = assay: PTP assay of ChPTPλ immunoprecipitated with A299 from DT40 cells (release of 32Pi from tyrosine-phosphorylated substrate); assay type: biochemical, chicken; settings: for ChPTPλ (% activity): buffer 20 mM Hepes (pH 7.4); for effect on ChPTPλ activity (in words) / effect on ChPTPλ activity: concentration not given (Table 1); for requirement for higher ChPTPλ activity in vitro (in words): chelator
Protocol: For immunoblot (Western) analysis, cells were lysed in 1% SDS containing protease inhibitor mix (1 mM phenylmethylsulfonyl fluoride/2 μg aprotinin per ml/1 μg pepstatin per ml) (Boehringer). […] For immunoprecipitation, cells were solubilized in 1% NP-40/PBS/protease inhibitor mix, then ChPTPλ was immunoprecipitated with pA299 (25).
(§1) Raytide (Oncogene Science) and bovine brain myelin basic protein (Sigma) (20 μg each) were phosphorylated on tyrosines by v-Src (34 pg), purified from a baculovirus expression system (35a), in 50 μl containing 20 mM Tris-HCl, pH 7.2/5 mM MnCl2 /50 μCi [γ-^32 P]ATP at 30° C. for 3 h. Casein and histone 2B (Sigma) were phosphorylated on serines and threonines by the catalytic subunit of calf heart cAMP-dependent protein kinase (1 U, Sigma) in 50 μl including 25 mM Hepes, pH 7.4/10 mM MgCl2 /10 mM DTT/50 μCi [γ-^32 P]ATP. All reactions were terminated by TCA-precipitationand resuspended in Tris-HCl (pH 8.0) as previously described (5).
(§2) […] When bacterial extract was used, assay was done in 50 μl of PTP buffer. After incubating at 30° C. for 30 min, the reactions were stopped, and the released ^32 Pi was measured as previously described (5).

[1] = target: T1, pKPTPλ, truncated ChPTPλ containing the intracellular domain (Gallus gallus, UniProt Q91976); assay: PTP assay of bacterial extract expressing pKPTPλ; assay type: biochemical, chicken
T1 construct: HindIII/EcoRI fragment in pKKUC12, E. coli DHB4 extract
Protocol: A 2 kb-cDNA fragment encoding the entire intracellular domain of ChPTPλ was excised by HindIII and EcoRI (starting from leucine 520, FIG. 2A-2C) and ligated to the expression vector pKKUC12. The recombinant,pkPTPλ, was transformed into E. coli DHB4 that lacks alkaline phosphatase (35). After induction by 0.4 mM IPTG for 2 h, bacterial extracts were prepared (5) and 5 μl samples were used for PTP assays. The extract of DHB4 containing the vector only was used as a negative control.
as §1, §2

[2] = 10 mM, buffer 20 mM Hepes (pH 7.4), 10 mM DTT, 5 mM EDTA

T1 sequence (Q91976 541-1237): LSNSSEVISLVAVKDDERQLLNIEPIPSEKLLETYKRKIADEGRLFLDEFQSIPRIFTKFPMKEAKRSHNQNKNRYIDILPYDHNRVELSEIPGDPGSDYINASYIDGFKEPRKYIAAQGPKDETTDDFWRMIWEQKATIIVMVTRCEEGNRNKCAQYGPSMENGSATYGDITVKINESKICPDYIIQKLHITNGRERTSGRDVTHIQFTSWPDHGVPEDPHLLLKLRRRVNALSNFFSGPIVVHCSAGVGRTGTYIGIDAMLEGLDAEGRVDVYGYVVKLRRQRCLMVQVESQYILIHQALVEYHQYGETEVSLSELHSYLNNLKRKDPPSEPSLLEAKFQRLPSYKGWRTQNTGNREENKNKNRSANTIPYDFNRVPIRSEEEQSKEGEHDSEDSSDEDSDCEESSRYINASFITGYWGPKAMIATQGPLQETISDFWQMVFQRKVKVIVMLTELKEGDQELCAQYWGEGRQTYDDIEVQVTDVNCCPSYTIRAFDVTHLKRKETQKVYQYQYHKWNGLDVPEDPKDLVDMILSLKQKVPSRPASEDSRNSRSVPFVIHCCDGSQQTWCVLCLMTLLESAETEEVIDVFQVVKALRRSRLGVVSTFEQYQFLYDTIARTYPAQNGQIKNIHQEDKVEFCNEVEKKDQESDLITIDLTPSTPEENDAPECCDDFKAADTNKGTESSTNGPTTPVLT

Question: What does the source list for `[Ca+2].[Cl-].[Cl-]` [CaCl2]?
Answer: ChPTPλ (% activity) (ChPTPλ; 10 mM, 10 mM DTT, 5 mM EDTA): 100%; effect on ChPTPλ activity (in words) (ChPTPλ): no effect at all; pKPTPλ (% activity) [1, 2]: 90%

Question: What does the source list for `O[C@@H](CS)[C@@H](O)CS` [DTT]?
Answer: ChPTPλ (% activity) (ChPTPλ; 10 nM): 65%; ChPTPλ (% activity) (ChPTPλ; 1 mM): 39%; requirement for ChPTPλ activity (in words) (ChPTPλ; 10 mM, reducing reagent): required for ChPTPλ activity; pKPTPλ (% activity) ([1]; 10 nM, buffer 20 mM Hepes (pH 7.4)): 80%

Question: With `O=C(O)CN(CCN(CC(=O)O)CC(=O)O)CC(=O)O` [EDTA] as the compound, how does the “ChPTPλ (% activity)” value (ChPTPλ; 5 nM, 10 mM DTT) read?
Answer: 100%

Question: What about the “requirement for higher ChPTPλ activity in vitro (in words)” value (ChPTPλ) of the same compound?
Answer: needed for ChPTPλ to reach a higher activity

Question: What about the activity at 0.005 µM ([1]; pH 7.4, read-out: pKPTPλ (% activity)) of the same compound?
Answer: 100%

Question: `O=C(O)CN(CCOCCOCCN(CC(=O)O)CC(=O)O)CC(=O)O` [EGTA] was tested. Which “ChPTPλ (% activity)” value (ChPTPλ; 5 mM, 10 mM DTT) did it give?
Answer: 100%

Question: And the “requirement for higher ChPTPλ activity in vitro (in words)” value (ChPTPλ)?
Answer: needed for ChPTPλ to reach a higher activity

Question: What about the activity at 5000 µM ([1]; 5 mM, buffer 20 mM Hepes (pH 7.4), 10 mM DTT) of the same compound?
Answer: 100%

Question: With `O=C(O)CI` [Iodoacetate] as the compound, how does the “inhibition of ChPTPλ” value (ChPTPλ; 1 mM) read?
Answer: > 70%

Question: And the “ChPTPλ (% activity)” value (ChPTPλ; 1 mM, 10 mM DTT, 5 mM EDTA)?
Answer: 29%

Question: `[Cl-].[Cl-].[Mg+2]` [MgCl2] was tested. Which “ChPTPλ (% activity)” value (ChPTPλ; 10 mM, 10 mM DTT, 5 mM EDTA) did it give?
Answer: 80%

Question: What about the “effect on ChPTPλ activity” value (ChPTPλ) of the same compound?
Answer: < 30%

Question: What about the “pKPTPλ (% activity)” value [1, 2] of the same compound?
Answer: 80%

Question: `[Cl][Mn][Cl]` [MnCl2] was tested. Which “ChPTPλ (% activity)” value (ChPTPλ; 10 mM, 10 mM DTT, 5 mM EDTA) did it give?
Answer: 87%

Question: And the “effect on ChPTPλ activity” value (ChPTPλ)?
Answer: < 30%

Question: And the “pKPTPλ (% activity)” value [1, 2]?
Answer: 51%

Question: And the “inhibitory influence on pKPTPλ activity” value ([1]; same assaying conditions (Table 1))?
Answer: 49%

Question: Which results are given for `[Na+].[Na+].[O]=[Mo](=[O])([O-])[O-]` [Na2 MoO4]?
Answer: inhibition of ChPTPλ (ChPTPλ; 0.1 mM): > 70%; ChPTPλ (% activity) (ChPTPλ; 0.1 mM, 10 mM DTT, 5 mM EDTA): 24%; pKPTPλ (% activity) ([1]; 0.1 mM, buffer 20 mM Hepes (pH 7.4), 10 mM DTT, 5 mM EDTA): 11%

Question: Which “ChPTPλ (% activity)” value (ChPTPλ; 0.1 mM, 10 mM DTT, 5 mM EDTA) does the source give for `[Na+].[Na+].[Na+].[O]=[V]([O-])([O-])[O-]` [Na3 VO4] here?
Answer: 78%

Question: What about the “inhibition of ChPTPλ” value (ChPTPλ; 1 mM) of the same compound?
Answer: > 70%

Question: And the “ChPTPλ (% activity)” value (ChPTPλ; 1 mM, 10 mM DTT, 5 mM EDTA)?
Answer: 4%

Question: What about the “pKPTPλ (% activity)” value ([1]; 1 mM, buffer 20 mM Hepes (pH 7.4), 10 mM DTT, 5 mM EDTA) of the same compound?
Answer: 2%

Question: How did the “ChPTPλ (% activity)” value (ChPTPλ; 200 mM, 10 mM DTT, 5 mM EDTA) turn out when `[Cl-].[Na+]` [NaCl] was run?
Answer: 100%

Question: And the “effect on ChPTPλ activity (in words)” value (ChPTPλ)?
Answer: no effect at all

Question: What does the source list for `[Cl-].[Cl-].[Zn+2]` [ZnCl2]?
Answer: inhibition of ChPTPλ (ChPTPλ; 10 mM): > 70%; ChPTPλ (% activity) (ChPTPλ; 10 mM, 10 mM DTT, 5 mM EDTA): 12%; pKPTPλ (% activity) [1, 2]: 1%

Question: What does the source list for NaPO4?
Answer: ChPTPλ (% activity) (ChPTPλ; 10 mM, 10 mM DTT, 5 mM EDTA): 70%; effect on ChPTPλ activity (ChPTPλ): < 30%; pKPTPλ (% activity) [1, 2]: 95%

Source: US5693488A, “Transmembrane tyrosine phosphatase, nucleic acids encoding the same, and methods of use thereof” (The Rockefeller University, priority 1994, dated 1997)
